Assay results as given in patent US6630331B1, “Herbicides test method” (Hoechst Schering AgrEvo GmbH, priority 1997, dated 2003).

Legend:
[1] = target: T1, recombinant Lotus pantothenate synthetase (Lotus japonicus, UniProt O24035); experiment: Activity of recombinant Lotus pantothenate synthetase in the presence of potential effectors; format: biochemical; set-up: the processed recombinant protein (3-proline through 308-leucine) has a theoretical mass of 34,037.7 Da; made in house; host or cells: E. coli AT1371 (panC) transformed with pSKL; conditions: for Final activity [%]: effector 1 mM, pantoate 0.1 mM, β-alanine 1.0 mM, % of activity without effector
Procedure: 2. The preferred assay mixture to measure the pyrophosphate liberated in the PS reaction after its conversion with inorganic pyrophosphatase to inorganic phosphate comprises 100 μmol Tris.HCl (pH 8.0), 10 μmol MgSO4, 5 μmol ATP, 10 μmol […], […], 1.0 unit […] After a suitable incubation period the PS reaction is terminated either
(§1) a) by the addition of 100 μlof a reagent mixture comprising 62.3 µg malachite green hydrochloride, 1.9 mg ammoniumheptamolybdate and 0.5% (v/v) of a suitable detergent (for example Triton X-100, Tween-80 or Tergitol NPX) in 1.88 N hydrochloric acid. The resulting colour complex is stabilised by the addition after 1 minute of 50 μl of a 26% (w/v) solution of trisodium citrate dihydrate in water and after an additional 45 minutes incubation at room temperature the intensity of the colour complex is determined by measuring the extinction at 620 nm. The amount of inorganic phosphate liberated in the PS reaction is determined by reference to a standard curve generated from suitable amounts of inorganic phosphate by using the difference of extinction at 620 nm between a complete PS assay mixture and a PS assay mixture lacking pantoate. Since there are 2 molecules of inorganic phosphate liberated for every molecule of pyrophosphate formed in the PS reaction, one unit of PS activity is defined as the amount of enzyme producing 2 nmoles of inorganic phosphate per minute, and specific activity is expressed as units per milligram of protein; or
Among these compounds are the intermediates of pantothenate biosynthesis as well as coenzyme A. As coenzyme A plays a prominent role in fatty acid synthesis and degradation, various acyl forms of coenzyme A and free fatty acids were also included. […] Table 7 lists the compounds tried and their effect on PS activity which is expressed percentage of activity in an assay without additions.

[2] = target: T2, recombinant L. japonicus pantothenate synthetase (Lotus japonicus, UniProt O24035); experiment: Substrate specificity of recombinant L. japonicus pantothenate synthetase; format: biochemical; conditions: for yield (%): relative to standard assay; for inhibition: analogue at 10-fold excess over pantoate
T2 construct: the processed recombinant protein (3-proline through 308-leucine) has a theoretical mass of 34,037.7 Da; made in house; host or cells: E. coli AT1371 (panC) transformed with pSKL
T2 sequence (O24035 3-308): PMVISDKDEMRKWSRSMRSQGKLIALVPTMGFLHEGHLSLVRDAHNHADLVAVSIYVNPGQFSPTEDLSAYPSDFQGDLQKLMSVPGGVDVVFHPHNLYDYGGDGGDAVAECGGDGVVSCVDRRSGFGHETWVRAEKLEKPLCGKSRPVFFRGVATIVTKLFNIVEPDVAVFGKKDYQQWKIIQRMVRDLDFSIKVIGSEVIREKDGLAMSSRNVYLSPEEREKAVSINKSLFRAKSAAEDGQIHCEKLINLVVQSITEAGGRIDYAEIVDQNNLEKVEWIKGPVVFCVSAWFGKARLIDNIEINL
Procedure: (§2) 2. The preferred assay mixture to measure the pyrophosphate liberated in the PS reaction after its conversion with inorganic pyrophosphatase to inorganic phosphate comprises 100 μmol Tris.HCl (pH 8.0), 10 μmol MgSO4, 5 μmol ATP, 10 μmol […], 0.5 μmol pantoate, 1.0 unit yeast inorganic pyrophosphatase and pantothenate synthetase in a total volume of 100 μl. After a suitable incubation period the PS reaction is terminated either
as §1, with “protein; or […]” for “protein; or”

[3] = target: T1, recombinant Lotus pantothenate synthetase; experiment: Steady state kinetics of recombinant Lotus pantothenate synthetase
Procedure: as §2, §1
Km and Vmax constants for pantoate and […] were determined by measuring the effect of substrate concentration on the reaction rate.

[4] = target: purified E. coli PS (Escherichia coli, UniProt P31663); conditions: cited from earlier work
purified E. coli PS, sequence (P31663 whole entry): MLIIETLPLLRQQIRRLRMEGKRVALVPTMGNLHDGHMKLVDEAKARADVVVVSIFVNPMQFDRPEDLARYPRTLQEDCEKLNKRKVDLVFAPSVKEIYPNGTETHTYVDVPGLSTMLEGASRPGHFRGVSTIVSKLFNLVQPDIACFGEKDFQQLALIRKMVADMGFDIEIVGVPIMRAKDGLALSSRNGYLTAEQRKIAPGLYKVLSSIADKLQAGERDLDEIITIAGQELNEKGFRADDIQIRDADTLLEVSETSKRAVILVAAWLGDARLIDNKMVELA

[5] = substrate: NCCC(=O)O; experiment: purified protein, by the assay type; conditions: pantoate at 0.5 mM const., pH 8.0
[6] = substrate: CC(C)(CO)[C@@H](O)C(=O)O; experiment: purified protein, by the assay type; conditions: pH 8.0
Procedure: Km and Vmax constants for pantoate and ⊖-alanine were determined by measuring the effect of substrate concentration on the reaction rate.

[7] = analogue 1.0 mM added to pantoate 0.1 mM and β-alanine 1 mM
[8] = analogue 1.0 mM in place of pantoate, β-alanine 1 mM
[9] = analogue 10 mM in place of pantoate, β-alanine 1 mM
[10] = other: Eadie-Hofstee (EH), β-alanine at 20 mM const.
[11] = other: Lineweaver-Burk (LB), β-alanine at 20 mM const.
[12] = other: fit of rate equation for uncompetitive substrate inhibition

## CC(=O)SCCNC(=O)CCNC(=O)[C@H](O)C(C)(C)COP(=O)(O)OP(=O)(O)OC[C@H]1O[C@@H](n2cnc3c(N)ncnc32)[C@H](O)[C@@H]1OP(=O)(O)O [Acetyl-coA]
[1]; read-out: Final activity [%]
  activity at 100 µM: 93%

## CC(C)(COP(=O)(O)OP(=O)(O)OC[C@H]1O[C@@H](n2cnc3c(N)ncnc32)[C@H](O)[C@@H]1OP(=O)(O)O)[C@@H](O)C(=O)NCCC(=O)NCCS [CoenzymeA]
[1]; read-out: Final activity [%]
  activity at 100 µM: 100%
  activity at 200 µM: 106%
  activity at 1000 µM: 109%

## CC(C)(CO)C(=O)C(=O)O [Ketopantoate, ketopantoate]
[2]
  activity as substrate in the place of pantoate: not active as substrates
  inhibition: did not effect significant inhibition
[2]; [7]
  activity (units): 12.18 units
  yield (%): 97%
[2]; [8]
  activity (units): 0 units
  yield (%): 0%
[2]; [9]
  activity (units): 0 units
  yield (%): 0%
[1]
  Final activity [%]: 97%

## CC(C)(COP(=O)(O)OP(=O)(O)OC[C@H]1O[C@@H](n2cnc3c(N)ncnc32)[C@H](O)[C@@H]1OP(=O)(O)O)[C@@H](O)C(=O)NCCC(=O)NCCSC(=O)CC(=O)O [Malonyl-coA]
[1]; read-out: Final activity [%]
  activity at 100 µM: 92%

## CCCCCCCC/C=C\CCCCCCCC(=O)SCCNC(=O)CCNC(=O)[C@H](O)C(C)(C)COP(=O)(O)OP(=O)(O)OC[C@H]1O[C@@H](n2cnc3c(N)ncnc32)[C@H](O)[C@@H]1OP(=O)(O)O [Oleoyl-coA]
[1]; read-out: Final activity [%]
  activity at 24 µM: 108%

## CCCCCCCCCCCCCCCC(=O)O [Palmitic acid]
[1]; read-out: Final activity [%]
  activity at 2 µM: 133%
  activity at 15 µM: 135%
  activity at 60 µM: 115%

## CCCCCC/C=C\CCCCCCCC(=O)O [Palmitoleic acid]
[1]; read-out: Final activity [%]
  activity at 20 µM: 116%
  activity at 100 µM: 100%

## CCCCCC/C=C\CCCCCCCC(=O)SCCNC(=O)CCNC(=O)[C@H](O)C(C)(C)COP(=O)(O)OP(=O)(O)OC[C@H]1O[C@@H](n2cnc3c(N)ncnc32)[C@H](O)[C@@H]1OP(=O)(O)O [Palmitoleoyl-coA]
[1]; read-out: Final activity [%]
  activity at 22 µM: 114%

## CC(C)(CO)[C@@H](O)C(=O)O [Pantoate, (R)-pantoate]
[3]; calculated from rate equation with fitted KS and K′S
  optimal pantoate concentration: 470 ± 30 µM
[3]; fit of rate equation for uncompetitive substrate inhibition
  K′S: 5.33 ± 0.34 mM
[3]; from Vmax of the uncompetitive substrate inhibition fit
  kcat: 0.625 ± 0.011 s⁻¹
[3]; substrate inhibition of Lotus PS
  pantoate concentration at which substrate inhibition becomes significant: ≥ 400 µM

## CC(C)(CO)[C@@H](O)C(=O)NCCC(=O)O [Pantothenate]
[1]; read-out: Final activity [%]
  activity at 1000 µM: 98%

## CC1(C)COC(=O)[C@@H]1O [Pantoyl-lactone, pantoyl-lactone]
[2]
  activity as substrate in the place of pantoate: not active as substrates
  inhibition: did not effect significant inhibition
[2]; [7]
  activity (units): 11.53 units
  yield (%): 92%
[2]; [8]
  activity (units): <0.1 units
  yield (%): <1%
[2]; [9]
  activity (units): 0.15 units
  yield (%): 1%
[4]
  activity toward pantoyl-lactone: no activity
[1]
  Final activity [%]: 92%

## O=P(O)(O)OP(=O)(O)O [Pyrophosphate]
[1]
  Final activity [%]: 78%

## CC(C)C(=O)C(=O)O [a-KIVA]
[1]
  Final activity [%]: 89%

B1: recombinant Lotus pantothenate synthetase (Lotus japonicus) (protein)
chain: PMVISDKDEMRKWSRSMRSQGKLIALVPTMGFLHEGHLSLVRDAHNHADLVAVSIYVNPGQFSPTEDLSAYPSDFQGDLQKLMSVPGGVDVVFHPHNLYDYGGDGGDAVAECGGDGVVSCVDRRSGFGHETWVRAEKLEKPLCGKSRPVFFRGVATIVTKLFNIVEPDVAVFGKKDYQQWKIIQRMVRDLDFSIKVIGSEVIREKDGLAMSSRNVYLSPEEREKAVSINKSLFRAKSAAEDGQIHCEKLINLVVQSITEAGGRIDYAEIVDQNNLEKVEWIKGPVVFCVSAWFGKARLIDNIEINL
[5]; other: Eadie-Hofstee (EH)
  Km: 986 (EH) μM
  Vmax: 9.51 (EH)
[5]; other: Lineweaver-Burk (LB)
  Km: 990 (LB) μM
  Vmax: 9.52 (LB)
  kcat: 0.54 s⁻¹
[6]; [10]
  Km: 44 (EH) μM
  Vmax: 10.98 (EH)
[6]; [11]
  Km: 45 (LB) μM
  Vmax: 11.36 (LB)
  kcat: 0.63 s⁻¹
[6]; [12]
  Km: 42 ± 2 µM
  Vmax: 11.03±0.19 units
